Structures can show the parent of a compound that is named as a salt. Where two headings read alike, the source gives them in different places.
Key:
[1] = cited from earlier work
[2] = system: P-388 leukemia and B-16 melanoma; conditions: mouse, in vivo; cited from earlier work
plasma proteins = conditions: cited from earlier work
Human tumor cells = conditions: cited from earlier work
[3] = cited from earlier work; remark: listed apart in the source
tumor cells = conditions: cited from earlier work
[4] = system: hepatic microsomal enzymes; conditions: in vitro; specific metabolites not identified; cited from earlier work
[5] = in vivo; cited from earlier work
DNA = conditions: hypoxic conditions; cited from earlier work
[6] = system: colon 26, Lewis lung, Ridgway osteosarcoma, B16, Lieberman plasma cell, P388 or L1210 cancer cells; conditions: cited from earlier work
Human Platelets = conditions: cited from earlier work
[7] = high doses; cited from earlier work
[8] = in vivo; cited from earlier work; remark: listed apart in the source
calf thymus DNA = conditions: in vitro; cited from earlier work
[9] = Filtration of 40 mg/mL stock mixture, content by HPLC; assay type: physicochemical; conditions: 5-μm, 1.2-μm and 0.2-μm filters
Experimental: Finished vials are sealed under nitrogen and partial vacuum for storage. Storage of the vials is typically at 18° C. to 25° C.

[10] = Assay of reconstituted bisantrene dihydrochloride diluted in i.v. bag, with or without 0.2-μm filter, glass vs plastic sample vials; assay type: physicochemical
[11] = in vivo; cited from earlier work; remark: listed apart in the source
[12] = cited from earlier work; remark: listed apart in the source
L-1210 leukemia cells = conditions: cited from earlier work
[13] = cited from earlier work; remark: listed apart in the source
[14] = cited from earlier work; remark: listed apart in the source

## C(=N\NC1=NCCN1)/c1c2ccccc2c(/C=N/NC2=NCCN2)c2ccccc12 [bisantrene, 9,10-anthracenedicarboxaldehyde-bis [(4,5-dihydro-1H-imidazole-2-yl) hydrazine] dihydrochloride]
[1]; daily×5, repeat every 4 week (Spiegel et al. 1982)
  maximally tolerated dose: 80 mg/m^2
[1]; monthly (every 3-4 week) (Von Hoff et al. 1981b)
  maximally tolerated dose: 260 mg/m^2
[1]; monthly (every 3-4 week), patients with poor bone marrow reserve
  maximally tolerated dose: 240 mg/mg^2
[1]; weekly×3 (Alberts et al. 1982)
  maximally tolerated dose: 200 mg/m^2
[1]; weekly×3, patients with poor bone marrow reserve (Alberts et al. 1982)
  maximally tolerated dose: 150 mg/mg^2
[1]; weekly×3, repeat every 4-5 week (Yap et al. 1982)
  maximally tolerated dose: 150 mg/m^2
[2]
  antitumor activity: antitumor activity
Plasma proteins
  bound to plasma proteins: More than 95%
Human tumor cells; breast, ovarian, renal, small cell and non-small cell lung cancer, lymphoma, acute myelogenous leukemia, melanoma, gastric, adrenal, head and neck cancer
  sensitivity of human tumor cells: sensitive
Human tumor cells; tested in vitro
  activity in human colon cancer: inactive
[3]; in vivo
  dose excreted in the urine: Less than 7%
  route by which the majority of the drug is eliminated: hepatobiliary route
[3]; intravenous dose 260 mg/m^2
  area under the plasma concentration×time curve: 4400 µg·h/mL
[3]; intravenous dose 340 mg/m^2
  area under the plasma concentration×time curve: 5700 µg·h/mL
[3]; plasma
  beta phase of elimination: approximately 1.5 hours
  initial distributive phase of elimination: 6 min
Tumor cells; breast, small cell lung, large cell lung, squamous cell lung, ovarian, pancreatic, renal, adrenal, head and neck, sarcoma, gastric, lymphoma and melanoma tumor cells
  activity in clonogenic assays: Activity
Tumor cells
  cross resistance with Adriamycin and mitoxantrone: lack of cross resistance
Tumor cells; colorectal cancer
  activity in clonogenic assays: not in colorectal cancer
[4]
  metabolism by hepatic microsomal enzymes: substrate
[5]
  precipitation of drug in the body: precipitates in the body have been observed
DNA
  cytotoxicity and DNA strand breaks: reduced
[6]; intravenously (i.v.), intraperitoneally (i.p.), or subcutaneously (s.c.)
  activity in cancer models: effective
[6]; orally
  activity in cancer models: inactive
Human Platelets
  effect on platelet aggregation: inhibit platelet aggregation
[7]
  toxicities observed: leukopenia, anorexia, diarrhea, injection site necrosis, enterocolitis, muscle degeneration, and pulmonary edema
[8]
  cardiotoxicity: not cardiotoxic
Calf thymus DNA
  shape of DNA dissociation curves: biphasic
[9]
  effect of removal of particulates on content in solution: does not diminish
[10]; sample collected in glass vials
  assay after passage through 0.2-μm filter versus i.v. bag assay: approximately 5 % lower
[10]; sample collected in plastic vials
  assay after passage through 0.2-μm filter versus i.v. bag assay: approximately matched
[10]; samples collected in glass vials
  assay of fully diluted drug in the i.v. bag versus reconstituted drug in the finished vial: approximately 5 % lower
[10]; samples collected in plastic vials
  assay of fully diluted drug in the i.v. bag versus reconstituted drug in the finished vial: no reduction
[11]
  brain levels: extremely low
  distribution to lymph nodes and bone marrow: did distribute
  tissues with the highest concentration (in descending order): kidney, liver, gallbladder, spleen, lung, and heart
[12]; Phase II
  activity in refractory malignant melanoma: inactive
[12]; hepatocellular cancer and hypernephroma (one patient each)
  activity in phase I clinical trials: showed activity
[12]; lymphoma, myeloma, melanoma, renal cancer, tumors of the bladder and lung
  activity in phase I clinical trials: showed activity
[12]; patients with metastatic breast cancer
  activity in Phase II clinical trials: active
[12]; tested in vivo (Phase II, advanced colorectal cancer)
  activity in human colon cancer: inactive
[12]; two other hypernephroma patients, five-day schedule
  activity in phase I clinical trials: activity was also observed
L-1210 leukemia cells
  DNA strand breaks typical of inhibition of DNA topoisomerase II enzymes: induce protein-associated DNA strand breaks
  DNA supercoiling indicative of DNA intercalation: induce altered DNA supercoiling
[13]; heavily pretreated patients with metastatic breast cancer
  toxicity for which the Phase II study was terminated: significant local toxicity
[13]; human, in vivo
  alopecia (hair loss) compared with doxorubicin: less intense
  anemia and cumulative myelosuppressive toxic effects: not encountered
  cardiotoxicity in the clinic compared with other agents in its class: less cardiotoxicity
  electrocardiographic changes while receiving the drug: No patients experienced electrocardiographic changes
  fever: mild fever
  major dose-limiting toxic effect: leukopenia
  nausea or vomiting: very little nausea or vomiting
  patients reporting malaise: up to one-half of patients
  patients with anaphylactoid reactions following infusion: Up to 10%
  phlebitis along peripheral veins used for drug infusion: severe phlebitis
  radioangiocardiographic monitoring of cardiac function: no decrease in ejection fraction
  recovery from myelosuppression: ≤ 19 days
  thrombocytopenia: mild
[13]; schedule of every 3 to 4 weeks
  nadir for myelosuppression: 9 days

## O=C([O-])O.[Na+] [sodium bicarbonate]
[14]
  effect of local injection on bisantrene extravasation necrosis: blocked

From US20210379021A1 (Race Oncology Ltd., priority 2018, published 2021)
